Data taken from patent publication US20250222028A1, “ENGINEERED IMMUNE CELL PLATFORM” (Cancer Research Technology Limited, priority 2022, published 2025).

Experiments:
GLI1 [1] = test: GLI1 mRNA expression by qRT-PCR in human CD8+ T cells and CTLs; format: cell-based
Method: FIG. 3. L-type Cav channel agonists increase expression of GLI1 and enhance specific cell killing by human CD8+ CTLs. Naïve human CD8+ T cells were purified from the buffy coat layer of blood isolated from healthy donors, and were stimulated using ImmunoCult™ CD3/CD28/CD2 human T-Cell Activator and again restimulated at day 10 for 3 days. (A) Human CTLs were restimulated on day 15-20 for 24 h with plate-bound anti-CD3 in the presence of 10 μM of FPL64176 or carrier control before RNA was extracted for qRT-PCR analysis. n=1 healthy donor. TBP is used as a reference gene. (B) Updated graph of (A) showing n=3 independent experiments/healthy donors. Gli1 expression is normalised to carrier. […] Error bars indicate SD. p values were calculated using an unpaired two-tailed Student's t test (B) or a two-way ANOVA (C/D). * indicates p<0.05, ** indicates p<0.01, **** indicates p<0.0001.
In order to assess the role of L-type Cav channel agonists in controlling the activation and effector function of human CD8+ T cells, naive primary human CD8+ T cells were purified from the buffy coat layer of blood isolated from healthy donors. Cells were stimulated using ImmunoCult™ Human CD3/CD28/CD2 T Cell Activator beads for 24 hours in the presence of 5 or 10 μM FPL 64176 or carrier control, and GLI1 mRNA expression was assessed by qRT-PCR. […]

GLI1 [2] = test: GLI1 expression by qRT-PCR in NK-92 cells; format: cell-based, human; conditions: 10 μM
Method: FIG. 5. L-type Cav channel agonists increase GLI1 expression in the human NK cell line NK-92 and promote specific tumour cell killing. (A) NK-92 cells were stimulated using an anti-NKp46 mAb for 4 hours in the presence of 10 μM FPL 64176, and GLI1 expression was assessed using qRT-PCR. Data is n=4 independent experiments. (B) NK-92 cells were stimulated using an anti-NKp46 mAb for 4 hours in the presence of 100 μM Bay K8644, and GLI1 expression was assessed using qRT-PCR. Data is n=3 independent experiments. (C) An LDH assay was performed to assess specific cell killing of K562 target cells at indicated effector to target ratios in the presence of 10 μM FPL 64176 (right-hand columns) or carrier control (left-hand columns). Error bars indicate SD. Data is from n=3 independent experiments.
To investigate whether L-type Cav channel agonists are also capable of enhancing GLI1 mRNA levels in the human NK cell line NK-92 (a non-Hodgkin's lymphoma cell line, expressing only Cav1.3), NK-92 cells were stimulated using an anti-NKp46 mAb (5 μg/mL) for 4 hours in the presence of either 10 μM FPL 64176 or 100 μM Bay K8644. For reference, Bay K8644 is a structural analogue of nifedipine, and acts as an L-type Cav channel agonist. GLI1 expression was assessed using qRT-PCR. […] These observations confirm that the GLI1-inducing effect of Cav agonists is not merely restricted to the compound FPL 64176. In particular, in NK cells.

K562 target cells = test: Flow-cytometry based killing assay, human Vγ9Vδ2 gammadelta T cells with K562 target cells; format: cell-based; conditions: 10 μM, killing assessed after 24 hours, vs EtOH carrier control
Method: FIG. 12. GLI1 is important for tumour cell killing of human Vγ9Vδ2 gammadelta T cells and treatment with L-type voltage gated Ca2+ channel agonist FPL 64176 increases killing capacity. PBMCs were isolated from Buffy Coats of healthy donors using SepMate PBMC Isolation Tubes. Vγ9Vδ2 expansion was induced by plating PBMCs at 1×10^6 concentration with 1 μM of Zoledronate in the presence of 100 IU/mL IL-2 and 120 IU/mL IL-15. Cells were split every 2-3 days from day 6 until day 20. Killing assays were conducted between day 16-20. (A) Vγ9Vδ2 T lymphocytes were incubated with Gli1/2 inhibitor GANT61 or EToH (carrier control) overnight and subsequently co-cultured with K562 target cells for 24 h at the indicated effector to target ratios and subjected to a flow-cytometry based killing assay. n=1 individual donor. (B) Vγ9Vδ2 cells were pre-incubated with 10 μM FPL 64176 or EToH (carrier control) before being co-cultured with K562 target cells at indicated effector to target ratios and subjected to a flowcytometric cytotoxicity assay in the presence of 10 μM FPL 64176 or EToH (carrier control). Killing was assessed after 24 hours. Tumour cell killing normalised to carrier treated cells at a 10:1 effector:target ratio. n=4 individual healthy donors from 2 independent experiments. […]

## COC(=O)c1c(C)[nH]c(C)c1C(=O)c1ccccc1Cc1ccccc1 [FPL 64176]
GLI1 [1]; human CD8+ CTLs restimulated day 15-20 with plate-bound anti-CD3, 10 μM, 24 hours (FIG. 3B)
  GLI1 expression: increase
GLI1 [1]; naive human CD8+ T cells, CD3/CD28/CD2 activator 24 hours, 5 or 10 μM (FIG. 3A)
  GLI1 expression: dose-dependent increase
GLI1 [2]; stimulated with anti-NKp46 mAb 4 hours, vs carrier control
  GLI1 expression: increased
GLI1 [2]; unstimulated cells
  GLI1 expression: No significant increase
K562 target cells
  killing by gammadelta T cells: increased killing
